Source: publication PMC12005349 (Journal of Cellular and Molecular Medicine, 2025)
No end group written: not given here.

Key:
[1] = target: T1, TGFβRI/TGFβRII receptor complex (Homo sapiens, UniProt P36897+P37173); experiment: Dual-Luciferase reporter (CAGA12-Luc/TK Renilla) luminescence assay of TGF-β signalling on HEK293T cells; format: cell-based; conditions: PI 500 nM to 50 μM, 60 min, then TGF-β 6 h, 4-parameter logistic regression, 4 biological replicates
T1 construct: host or cells: HEK293T CAGA12-Luc/TK Renilla reporter cells
From the text: The cell line stably expresses CAGA12‐Luc, a Smad3/Smad4‐dependent reporter containing 12 copies of CAGAC motifs derived from the PAI‐1 promoter. This reporter protein is expressed and secreted by HEK293T cells upon TGFβRI/TGFβRII activation. The cell line also contains a Renilla reporter driven by a thymidine kinase (TK) promoter that acts as an internal control.
The presence of the described reporter activity allows HEK293T cells to be used to measure TGF‐β signalling activity using luciferase assays. The Promega Dual‐Luciferase Reporter Assay System (Promega, cat. no E1910) kit was used for assays on the HEK293T cell line. The following procedure was carried out according to manufacturer protocols. Cells were seeded in 96‐well plates coated with poly‐d‐lysine (PDL), in a DMEM 10% FBS medium. All experiments were carried out with the use of 4 biological replicates per group. After 24 h of incubation, the culture medium was removed and the cells were washed three times with PBS. […] After incubation, an additional volume of fresh blank medium or medium supplemented with TGF‐β was added to the wells. The cells were incubated again for 6 h, after which the contents of the wells were removed and the wells rinsed again with PBS. The cells were stored at −80°C until measurement.
Prior to measurement, cells were lysed using a passive lysis buffer. The lysate from each well was added to corresponding wells on a new 96‐well plate containing a reagent that induces luminescence of the first reporter protein, which is expressed by the HEK293T cells upon TGF‐β receptor activation. Luminescence was read using a plate reader with a luminescence measurement function (Victor EX, Perkin Elmer), following the kit manufacturer's instructions. After the measurement, a reagent that activates the second reporter protein (constitutively expressed by HEK293T cells, serves as an internal control) was added to each well, and the luminescence reading was repeated. All luciferase‐based assays were conducted using 4 biological replicates (cell cultures seeded and cultured independently) for each inhibitor and concentration tested.
IC50 values were calculated using 4‐parameter logistic regression in the Prism 9.0 (GraphPad) software. […] All measured results were considered significant at α level = 0.05. The α level is the threshold value against which p‐values are measured. p < 0.05 was considered to indicate a statistically significant difference.

[2] = system: HEK293T cells; experiment: Cytotoxicity by flow cytometry (FITC Annexin V / propidium iodide) on HEK293T cells; format: cell-based, human; conditions: for Viability (%): 20 µM
Experimental: HEK293T cells were seeded in 12‐well plates coated with poly‐d‐lysine (PDL) in a DMEM 10% FBS medium. After 24 h of incubation, the culture medium was removed and the cells were washed three times with PBS. Next, either empty fresh culture medium, medium with the addition of a commercial small molecule (SD‐208 or SB‐525334), or one of the novel peptides TGF‐β inhibitors was added. After 24 h of incubation, cells were removed from the wells and counted using a haemocytometer. Cells were prepared for flow cytometry using the Pharmingen FITC Annexin V Apoptosis Detection Kit I (BD Biosciences, cat. no 556547). 100,000 cells from each sample were suspended in a binding buffer and then stained with FITC and/or propidium iodide. After a 15‐min incubation, the fluorescence profiles of each cell population were measured using a flow cytometer (CytoFLEX, Beckman Coulter), identifying the proportion of cells in apoptosis and necrosis. The data were visualised and quantified by constructing a dot plot using the CytExpert (Beckman Coulter) software.

[3] = system: TGFβRI; set-up: method as in 2 sources, ref 51 = [51]; 51 SB431542 | Activin/BMP/TGF‐Beta Pathway Inhibitor | […] Technologies [Internet] , https://www.stemcell.com/products/sb431542.html . ||| ref 52 = [52]; 52 selleckchem.com [Internet] , “SD‐208 | 99.67%(HPLC) | TGF‐Beta/Smad Inhibitor” , https://www.selleckchem.com/products/sd‐208.html .; conditions: cited from earlier work

T1 sequence (P36897 34-503): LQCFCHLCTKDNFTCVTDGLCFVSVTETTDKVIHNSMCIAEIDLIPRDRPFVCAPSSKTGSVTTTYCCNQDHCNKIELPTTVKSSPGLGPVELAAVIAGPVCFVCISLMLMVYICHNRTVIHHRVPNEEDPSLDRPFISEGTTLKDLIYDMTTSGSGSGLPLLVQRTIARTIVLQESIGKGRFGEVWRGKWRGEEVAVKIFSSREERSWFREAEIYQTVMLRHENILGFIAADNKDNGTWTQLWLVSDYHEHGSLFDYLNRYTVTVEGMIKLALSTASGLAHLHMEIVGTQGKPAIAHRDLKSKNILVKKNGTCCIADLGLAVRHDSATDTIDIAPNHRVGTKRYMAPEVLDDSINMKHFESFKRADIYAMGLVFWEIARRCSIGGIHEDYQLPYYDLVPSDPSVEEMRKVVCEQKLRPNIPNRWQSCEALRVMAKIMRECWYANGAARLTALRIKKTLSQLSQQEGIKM
T1 sequence (P37173 23-567): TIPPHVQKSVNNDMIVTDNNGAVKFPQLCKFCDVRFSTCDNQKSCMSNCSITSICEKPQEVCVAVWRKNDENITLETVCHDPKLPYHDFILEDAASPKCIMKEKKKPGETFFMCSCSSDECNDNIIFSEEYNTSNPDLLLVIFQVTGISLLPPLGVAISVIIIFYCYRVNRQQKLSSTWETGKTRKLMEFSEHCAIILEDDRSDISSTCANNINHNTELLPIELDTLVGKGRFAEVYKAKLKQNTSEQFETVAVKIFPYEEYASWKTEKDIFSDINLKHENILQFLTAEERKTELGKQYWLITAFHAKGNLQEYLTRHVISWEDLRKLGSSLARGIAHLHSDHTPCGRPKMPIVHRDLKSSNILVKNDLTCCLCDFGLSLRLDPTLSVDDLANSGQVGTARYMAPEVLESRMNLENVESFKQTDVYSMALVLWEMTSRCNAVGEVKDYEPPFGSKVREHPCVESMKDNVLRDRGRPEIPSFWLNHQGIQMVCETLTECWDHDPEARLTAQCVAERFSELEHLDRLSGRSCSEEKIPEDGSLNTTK

IC50 [1] [µM]	Compound	further results
27.7	ACPYLWSSD [2_4]	–
25	WSSDTQHSR [2_9]	–
20.8	YLWSSDTQH [2_7]	–
21.9	CPYLWSSDT [2_5]	–
29.3	AGACPYLWS [2_2]	–
27.4	LWSSDTQHS [2_8]	–
23.6	GACPYLWSS [2_3]	Viability (%) [2]: 86.4%
25.7	PYLWSSDTQ [2_6]	–

Further lines, the compound ahead of its results:

Compound	IC50 [1] [µM]	further results
Fc1ccc(Cl)cc1-c1nc(Nc2ccncc2)c2nccnc2n1 [SD-208]	–	Viability (%) [2]: 87.1%; IC50 [3]: […]
TSLDASIIWAMMQN [P144]	–	Viability (%) [2]: 82.2%; Effect on HEK293T cell viability compared to untreated cells ([2]; 20 μM, 24 h, flow cytometry): none of the tested inhibitors reduced cell viability to a statistically significant degree
AYCFRNVQD [1_5]	24.2	–
NC(=O)c1ccc(-c2nc(-c3ccc4c(c3)OCO4)c(-c3ccccn3)[nH]2)cc1 [SB-431542]	–	IC50 [3]: 0.094 µM
Cc1cccc(-c2[nH]c(C(C)(C)C)nc2-c2ccc3nccnc3c2)n1 [SB-525334, 6‐[2‐tert‐Butyl‐5‐(6‐methyl‐pyridin‐2‐yl)‐1H‐imidazol‐4‐yl]‐quinoxaline]	–	Viability (%) [2]: 86.9%
AAYCFRNVQ [1_4]	57.2	–
LDAAYCFRN [1_2]	44	–
DAAYCFRNV [1_3]	42.4	–
ALDAAYCFR [1_1]	43.3	Viability (%) [2]: 88.7%
